# Assay results: PMC4644980, “The FDA-approved natural product dihydroergocristine reduces the production of the Alzheimer’s disease amyloid-β peptides” (Scientific Reports, 2015)
# Where a name gives a salt, the structure may show the parent alone. Where a SMILES comes first, the peptide text is derived from it. The star is where a group is joined. Pyrrolidide = C1CCN(*)C1
# Assays:
# purified γ-secretase = target: T1, purified γ-secretase (Homo sapiens, UniProt P49768+Q92542); test: cell-free in vitro C100-Flag γ-secretase assay with purified enzyme; type: biochemical; settings: for The potency of compound (in vitro C100 γ-secretase assay): 200 µM, compared with DHEC, estimated by densitometry; for inhibition of γ-secretase activity (C100-Flag cleavage): 200 μM; for inhibition of γ-secretase activity (C100-Flag cleavage) / IC50: purified γ-secretase; for IC50: AICD-Flag densitometry, read-out: IC50 in the in vitro γ-secretase activity assay (C100-Flag processing)
# T1 construct: made in house
# Excerpt: The density of the AICD-Flag and Aβ total bands was quantified by Odyssey software (Supplementary data Fig. S5). […] The residue was then separated by Bicine/urea SDS-PAGE, together with an Aβ standard of synthetic human Aβ38, Aβ40 and Aβ42, followed by Western blot detection with anti-Aβ antibody (6E10, left panel), or quantification by ELISA (right panel). Black bars, Aβ [1–40]; gray bars, Aβ[1–42]. Data were presented as the means ± sd. […] The change in response units over time is shown. […]
# γ-Secretase was purified from S-20 cells as described previously. The recombinant APP-based protein substrate of γ-secretase, namely human C100-Flag, was overexpressed in E. coli and purified by using an anti-Flag M2 resin[31]. Full length human NCT was purified as described previously (for details, see Supplementary information)[32].
# Cell-free in vitro γ-secretase assays using the recombinant C100-Flag substrate and purified γ-secretase were performed as described in the Supplementary information.
# Aβ1-x peptides secreted in the cell media were quantitatively measured by ELISA (IBL, Gunma, Japan) according to the standard protocol from the manufacturer. Aβ40 and Aβ42 generated in the C100-Flag γ-secretase assays stopped with 0.5% SDS (final concentration) were quantified with the human Beta Amyloid or [1–42] colorimetric ELISA kit, respectively. […]
# γ-Secretase activity assays
# γ-Secretase purified from S-20 cells was solubilized in 0.2% (w/v) CHAPSO in 50 mM HEPES buffer (pH 7.0) containing of 150 mM NaCl, 5 mM MgCl2 and 5 mM CaCl2, and incubated with 0.1% (w/v) PC and 1 μM or otherwise indicated […]
# concentrations of substrate at 37 °C for 4 h, after which the enzymatic reactions were stopped by adding 0.5% SDS (final concentration). The samples were analyzed by Western Blot for AICD-Flag or Aβ. […]
# [1] = system: hAPP cleavage by γ-secretase; test: cleavage of APP-CTFs in HEK293 cells overexpressing hAPP; type: cell-based, human; settings: 20 or 50 μM
Structure (SMILES),The potency of compound (in vitro C100 γ-secretase assay) (purified γ-secretase),inhibition of γ-secretase activity (C100-Flag cleavage) (purified γ-secretase),IC50 (purified γ-secretase) [µM],cleavage of APP-CTFs / accumulation of APP-CTFs [1]
"CC(C)C[C@H]1C(=O)N2CCC[C@H]2[C@]2(O)O[C@](NC(=O)[C@@H]3C=C4c5cccc6[nH]cc(c56)C[C@H]4N(C)C3)(C(C)C)C(=O)N12 [α-Ergocryptine, α-ergocryptine]",+++,inhibited,,
"CC[C@@H](CO)NC(=O)[C@@H]1C=C2c3cccc4[nH]cc(c34)C[C@H]2N(C)C1 [Methyl-ergometrine, methylergometrine]",-,did not inhibit,,
"CCC(C)[C@H]1C(=O)N2CCC[C@H]2[C@]2(O)O[C@](NC(=O)[C@@H]3C[C@@H]4c5cccc6[nH]cc(c56)C[C@H]4N(C)C3)(C(C)C)C(=O)N12 (stereo partly drawn) [β-Dihydro-ergocryptine, β-Dihydroergocryptine]",+,inhibited,,
"CC(C)C[C@H]1C(=O)N2CCC[C@H]2[C@]2(O)O[C@](NC(=O)[C@@H]3C=C4c5cccc6[nH]c(Br)c(c56)C[C@H]4N(C)C3)(C(C)C)C(=O)N12 [2-Bromo-α-ergocryptine, 2-bromo-α-ergocryptine methanesulfonate salt]",+++,retained the ability to inhibit,~50,inactive
"CN1C[C@H](C(=O)N[C@]2(C)O[C@@]3(O)[C@@H]4CCCN4C(=O)[C@H](Cc4ccccc4)N3C2=O)C=C2c3cccc4[nH]cc(c34)C[C@H]21 [Ergotamine, ergotamine tartrate]",-,did not inhibit,,
"CC(C)C[C@H]1C(=O)N2CCC[C@H]2[C@]2(O)O[C@](NC(=O)OCc3ccccc3)(C(C)C)C(=O)N12 [CABA, [2R-(2α, 5α, 10aβ, 10bα)]-[Octahydro-10b-hydroxy-2-(1-methylethyl)-5-(2-methylpropyl)-3,6-dioxo-8H-oxazolo[3,2-a]pyrrolo[2,1-c]pyrazin-2-yl]-carbamic acid]",,,~100,accumulation of APP-CTFs only when administered at a concentration of 50 μM
CC(=O)N[C@H](C(=O)N[C@@H](Cc1ccccc1)C(=O)N1CCCC1)C(C)C [AMBE] (Ac-Val-Phe-Pyrrolidide),-,did not show any inhibitory activity,,
"CN1C[C@H](C(=O)N[C@]2(C)O[C@@]3(O)[C@@H]4CCCN4C(=O)[C@H](Cc4ccccc4)N3C2=O)C[C@@H]2c3cccc4[nH]cc(c34)C[C@H]21 [Dihydro-ergotamine (DHE), dihydroergotamine methanesulfonate salt]",-,did not inhibit,,
"CN1C[C@H](CNC(=O)OCc2ccccc2)C[C@@H]2c3cccc4c3c(cn4C)C[C@H]21 [Metergoline, metergoline]",-,did not inhibit,,
"CCCN1C[C@H](CSC)C[C@@H]2c3cccc4[nH]cc(c34)C[C@H]21 [Pergolide, pergolide mesylate salt]",-,did not inhibit,,
